Assay results taken from patent publication US7875599B2, “C-17-heteroaryl steroidal CYP17 inhibitors/antiandrogens, in vitro biological activities, pharmacokinetics and antitumor activity” (University of Maryland, priority 2005, dated 2011).

Columns and labels:
[1] = molecular target: T1, human 5α-reductase type 2 (Homo sapiens, UniProt P31213); test: Human 5α-reductase type 2 assay (BPH tissue homogenate)
T1 sequence (P31213 1-254): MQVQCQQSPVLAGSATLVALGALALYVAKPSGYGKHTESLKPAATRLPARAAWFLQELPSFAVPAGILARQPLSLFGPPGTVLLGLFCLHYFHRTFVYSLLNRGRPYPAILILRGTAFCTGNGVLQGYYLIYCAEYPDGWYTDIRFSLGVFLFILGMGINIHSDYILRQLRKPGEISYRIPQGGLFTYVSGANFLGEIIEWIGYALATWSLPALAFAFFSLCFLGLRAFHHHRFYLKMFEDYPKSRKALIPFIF

[2] = molecular target: T2, human 5α-reductase type 1 (Homo sapiens, UniProt P18405); test: Human 5α-reductase type 1 assay (DU-145 cell line)
T2 sequence (P18405 1-259): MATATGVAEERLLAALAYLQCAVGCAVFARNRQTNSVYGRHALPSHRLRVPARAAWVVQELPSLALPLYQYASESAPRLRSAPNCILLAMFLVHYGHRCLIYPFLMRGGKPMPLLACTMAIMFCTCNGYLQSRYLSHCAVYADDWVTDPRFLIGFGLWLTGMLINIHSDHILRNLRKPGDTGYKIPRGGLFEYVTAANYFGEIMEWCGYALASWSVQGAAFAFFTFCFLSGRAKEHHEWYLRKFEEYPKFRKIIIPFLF

CYP17 = molecular target: T3, CYP17 (Homo sapiens, UniProt P05093); test: CYP17 inhibition, acetic acid releasing assay with intact P450c17-expressing E. coli
T3 sequence (P05093 1-508): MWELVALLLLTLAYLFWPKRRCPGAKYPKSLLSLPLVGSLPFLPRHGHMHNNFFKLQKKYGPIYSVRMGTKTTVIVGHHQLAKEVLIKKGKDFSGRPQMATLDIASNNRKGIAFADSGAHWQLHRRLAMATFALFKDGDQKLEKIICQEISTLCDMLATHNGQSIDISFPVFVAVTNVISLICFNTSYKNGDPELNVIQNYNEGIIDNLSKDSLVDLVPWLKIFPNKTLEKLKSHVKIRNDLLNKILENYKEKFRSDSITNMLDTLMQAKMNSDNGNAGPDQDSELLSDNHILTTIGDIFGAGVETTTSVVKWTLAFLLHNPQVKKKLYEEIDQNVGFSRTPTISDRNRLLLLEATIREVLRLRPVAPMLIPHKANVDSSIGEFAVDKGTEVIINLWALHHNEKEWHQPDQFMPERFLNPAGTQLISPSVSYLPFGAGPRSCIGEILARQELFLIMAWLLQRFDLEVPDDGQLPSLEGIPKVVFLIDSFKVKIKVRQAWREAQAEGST

[3] = system: LAPC4 human prostate tumor xenograft; test: LAPC4 xenograft, second experiment (treatment from day after inoculation); type: in vivo, mouse; conditions: 0.15 mmol/kg twice-daily s.c.
Source text: The second in vivo experiment tests the ability of 5 to inhibit the growth of LAPC4 prostate cancer cells growing in SCID mice, and 16 (Chart 1), a previously identified potent CYP17 inhibitor/antiandrogen (Gregoriyev et al. and Njar et al., J. Med. Chem., 1998, 41, 902-912, above) and castration are used as reference treatments. In this experiment, treatment begins on the day that mice were inoculated subcutaneously with hormone-dependent LAPC4 cells and are castrated or injected sc twice daily with 5 or 16.
In Vivo Antitumor Studies (LAPC-4 Prostate Cancer Xenografts): All animal studies are performed according to the guidelines and approval of the Animal Care Committee of the University of Maryland School of Medicine, Baltimore. Male severe combined immunodeficient (SCID) mice 4-6 weeks of age purchased from the National Cancer Institute-Frederick Cancer Research and Development Center (Fredrick, Md.) are housed in a pathogen-free environment under controlled conditions of light and humidity and allowed free access to food and water. Tumors are developed from LAPC4 cells inoculated subcutaneously (s.c.) in the mice essentially as previously described (21). LAPC4 cells are grown in IMEM with 15% FBS plus 1% PS and 10 nm DHT until 80% confluent. Cells are scraped into DPBS, collected by centrifugation, and resuspended in Matrigel (10 mg/ml) at 3×10^7 cells/ml. Mice are injected s.c. with 100 μl of the cell suspension at one site on each flank. Tumors are measured weekly with calipers, and tumor volumes are calculated by the formula: […]).
In the second experiment, mice are inoculated with LAPC4 cells and are divided into four groups of 5 mice each. The control and castrated group receiv vehicle, while the other two groups receiv either VN/85-1 (0.15 mmol/kg twice-daily, 9 a.m. and 5 p.m.) or 5 (0.15 mmol/kg twice-daily, 9 a.m. and 5 p.m.). These treatments are initiated one day after LAPC4 cell inoculation; continued for 14 weeks for control group, 19 weeks (for VN/85-1 and castration groups) and for 21 weeks for 5 treated group and tumors are measured and processed as described above.
FIG. 7: The effects of 5, 16, and orchidectomy on the formation and growth of LAPC4 prostate tumors in male SCID mice. 3×10^7 LAPC-4 cells were injected s.c. into the dorsal flank of SCID mice. One group of mice was castrated. The other groups of mice received either vehicle or 5 (0.15 mmol/kg twice-daily) or 16 (0.15 mmol/kg twice-daily). Daily treatment with 5 or 16 was initiated 1 day after cell inoculation. Tumors volumes were measured weekly, and the percentage of change in tumor volume was determined after 16 weeks of treatment * Indicates significant difference of 5 versus control, castration and 16 at week 14 (P 0.00065, 0.05 and 0.0097, respectively). ** Indicates significant difference of 5 versus castration and 16 at week 16 (P=0.047 and 0.0047, respectively). ↓-↓↓: Period of reduced administered dose of 5.

LNCaP cells = test: LNCaP cell growth, WST-1 viability assay; conditions: Homo sapiens, LNCaP, 168 h, read-out: IC50, inhibition of DHT-induced LNCaP cell proliferation, 1 nM DHT, 7 days, WST-1
Method: To determine the effect of novel compounds on cell proliferation, cells are transferred into steroid-free medium three days prior to the start of the experiments. Steroid-free medium consisted of phenol red free RPMI supplemented with 5% dextran-coated, charcoal treated serum, and 1% penicillin/streptomycin solution. Growth studies are then performed by plating cells (3×10^4) in 24-well multi-well dishes (Corning, Inc. Corning, N.Y.). After a 24 hours attachment period, the medium is aspirated and replaced with steroid-free medium containing vehicle or the indicated concentration of DHT (1 nM) and compounds (0.1 μM-10 μM). Control wells are treated with vehicle (ethanol). This medium is changed every three days and the number of viable cells is compared by WST-1 [4-[3-(4-iodophenyl)-2-(4-nitrophenyl)-2H-5-tetrazolio]-1,3-benzene disulfonate] assay on the seventh day. Following incubation of cells for the above-mentioned time, 10% WST-1 solution is added to each well and incubated at 37° C. for three hours. Following incubation, plates are slightly shaken and immediately read at 450 nm with a scanning multi-well spectrophotometer. All results represent the average of a minimum of three wells. Additional control consists of medium alone with no cells.
Cells were grown in steroid-free medium before plating.

[4] = male, SCID, mouse, in vivo, 1 h
Method: At the end of the experiment, the levels of 5 in the tumors and organs of the 5-treated mice are determined. […] This metabolite has the same retention time as the metabolite observed in the plasma (vide supra). […] The animals in the VN/124-1-treated group are sacrificed 1 h after the last VN/124-1 administration, and tumor, liver and testis are harvested and snap frozen in liquid nitrogen. Tissue samples are homogenized in phosphate buffer (pH=7.4, […]). […] The residue is reconstituted in 100 μL of the HPLC mobile phase, filtered through 0.2 μm Teflon filters and then analyzed by HPLC as described above.

SMILES	IC50 [1] [nM]	IC50 [2] [nM]	melting point [°C]	IC50 (CYP17) [nM]	increase of tumor volume ([3]; week 14) [fold]	reduction of tumor volume versus control mice ([3]; week 14 (b4 prints 50 mg/kg/twice daily)) [%]	inhibition at 10 µM ([1]; read-out: 5α-Reductase type 2 % inhibition at 10 μM) [%]	IC50 (LNCaP cells) [nM]	inhibition at 10 µM ([2]; read-out: 5α-Reductase type 1 % inhibition at 10 μM) [%]	concentration in the s.c. tumors [4] [μg/mg tissue]
C[C@]12CCC(=O)C=C1CC[C@@H]1[C@@H]2CC[C@]2(C)C(n3cnc4ccccc43)=CC[C@@H]12 [Compound 6, 17-(1H-benzimidazol-1-yl)androsta-4,16-diene-3-one]	480	770	201 to 204	915	–	–	–	–	–	–
C[C@]12CC[C@H](O)CC1=CC[C@@H]1[C@@H]2CC[C@]2(C)C(n3cnc4ccccc43)=CC[C@@H]12 [Compound 5, 3β-Hydroxy-17-(1H-benzimidazol-1-yl)androsta-5,16-diene]	–	–	–	300	0.5	93.8	53	6000	4	39.0±8.4
